Columns and labels:
Test in all cases: SelectScreen kinase profiling, SSBK LanthaScreen Binding SP Technology
[1] = molecular target: kinase named in conditions (Homo sapiens, UniProt O00444); settings: PLK4, 10 μM
[2] = molecular target: kinase named in conditions (Homo sapiens, UniProt P00519, Q252H); settings: ABL1 Q252H, 10 μM
[3] = molecular target: kinase named in conditions (Homo sapiens, UniProt P06241); settings: FYN A, 10 μM
[4] = molecular target: kinase named in conditions (Homo sapiens, UniProt P10721, A829P); settings: KIT A829P, 10 μM
[5] = molecular target: kinase named in conditions (Homo sapiens, UniProt P10721, D816H); settings: KIT D816H, 10 μM
[6] = molecular target: kinase named in conditions (Homo sapiens, UniProt P10721, D820E); settings: KIT D820E, 10 μM
[7] = molecular target: kinase named in conditions (Homo sapiens, UniProt P15056); settings: BRAF, 10 μM
[8] = molecular target: kinase named in conditions (Homo sapiens, UniProt P19525); settings: EIF2AK2 (PKR), 10 μM
[9] = molecular target: kinase named in conditions (Homo sapiens, UniProt P22607, G697C); settings: FGFR3 G697C, 10 μM
[10] = molecular target: kinase named in conditions (Homo sapiens, UniProt P22612); settings: PRKACG (PRKAC gamma), 10 μM
[11] = molecular target: kinase named in conditions (Homo sapiens, UniProt P30530, R499C); settings: AXL R499C, 10 μM
[12] = molecular target: kinase named in conditions (Homo sapiens, UniProt P36894); settings: BMPR1A (ALK3), 10 μM
[13] = molecular target: kinase named in conditions (Homo sapiens, UniProt P37023); settings: ACVRL1 (ALK1), 10 μM
[14] = molecular target: kinase named in conditions (Homo sapiens, UniProt P37173); settings: TGFBR2, 10 μM
[15] = molecular target: kinase named in conditions (Homo sapiens, UniProt P45984); settings: MAPK9 (JNK2), 10 μM
[16] = molecular target: kinase named in conditions (Homo sapiens, UniProt P53779); settings: MAPK10 (JNK3), 10 μM
[17] = molecular target: kinase named in conditions (Homo sapiens, UniProt Q00526); settings: CDK3/cyclin E1, 10 μM
[18] = molecular target: kinase named in conditions (Homo sapiens, UniProt Q04771, R206H); settings: ACVR1 (ALK2) R206H, 10 μM
[19] = molecular target: kinase named in conditions (Homo sapiens, UniProt Q07912); settings: TNK2 (ACK), 10 μM
[20] = molecular target: kinase named in conditions (Homo sapiens, UniProt Q15569); settings: TESK1, 10 μM
[21] = molecular target: kinase named in conditions (Homo sapiens, UniProt Q16832, N456S); settings: DDR2 N456S, 10 μM
[22] = molecular target: kinase named in conditions (Homo sapiens, UniProt Q32MK0); settings: MLCK (MLCK2), 10 μM
[23] = molecular target: kinase named in conditions (Homo sapiens, UniProt Q6PHR2); settings: ULK3, 10 μM
[24] = molecular target: kinase named in conditions (Homo sapiens, UniProt Q76MJ5); settings: ERN2, 10 μM
[25] = molecular target: kinase named in conditions (Homo sapiens, UniProt Q86YV6); settings: MYLK4, 10 μM
[26] = molecular target: kinase named in conditions (Homo sapiens, UniProt Q8TD08); settings: MAPK15 (ERK7), 10 μM
[27] = molecular target: kinase named in conditions (Homo sapiens, UniProt Q96S53); settings: TESK2, 10 μM
[28] = molecular target: kinase named in conditions (Homo sapiens, UniProt Q99759); settings: MAP3K3 (MEKK3), 10 μM
[29] = molecular target: kinase named in conditions (Homo sapiens, UniProt Q9BYP7); settings: WNK3, 10 μM
[30] = molecular target: kinase named in conditions (Homo sapiens, UniProt Q9NYL2); settings: ZAK, 10 μM
[31] = molecular target: kinase named in conditions (Homo sapiens, UniProt Q9UEE5); settings: STK17A (DRAK1), 10 μM
[32] = molecular target: kinase named in conditions (Homo sapiens, UniProt Q9UF33); settings: EPHA6, 10 μM
[33] = molecular target: kinase named in conditions (Homo sapiens, UniProt Q9Y3S1); settings: WNK2, 10 μM
[34] = system: kinase named in conditions

FC(F)(F)c1c(Cl)ccc(-n2ccnn2)c1Cl [8l, 1-(2,4-Dichloro-3-(trifluoromethyl)phenyl)-1H-1,2,3-triazole]
inhibition at 10 µM [1]: -1% | inhibition at 10 µM [2]: 10% | inhibition at 10 µM [3]: -8% | inhibition at 10 µM [4]: -3% | inhibition at 10 µM [5]: -2% | inhibition at 10 µM [6]: -4% | inhibition at 10 µM [7]: 7% | inhibition at 10 µM [8]: 6% | inhibition at 10 µM [9]: -1% | inhibition at 10 µM [10]: 6% | inhibition at 10 µM [11]: 5% | inhibition at 10 µM [12]: 6% | inhibition at 10 µM [13]: 12% | inhibition at 10 µM [14]: 7% | inhibition at 10 µM [15]: -5% | inhibition at 10 µM [16]: -1% | inhibition at 10 µM [17]: 4% | inhibition at 10 µM [18]: 0% | inhibition at 10 µM [19]: 3% | inhibition at 10 µM [20]: 7% | inhibition at 10 µM [21]: 26% | inhibition at 10 µM [22]: -3% | inhibition at 10 µM [23]: -4% | inhibition at 10 µM [24]: 9% | inhibition at 10 µM [25]: -5% | inhibition at 10 µM [26]: 1% | inhibition at 10 µM [27]: 6% | inhibition at 10 µM [28]: -14% | inhibition at 10 µM [29]: -10% | inhibition at 10 µM [30]: 3% | inhibition at 10 µM [31]: 13% | inhibition at 10 µM [32]: 1% | inhibition at 10 µM [33]: 2% | % Inhibition mean ([34]; ALK T1151_L1152insT, 10 μM): 3% | % Inhibition mean ([34]; EGFR (ErbB1) d746-750, 10 μM): 2% | % Inhibition mean ([34]; EGFR (ErbB1) d747-749 A750P, 10 μM): -6% | % Inhibition mean ([34]; FLT3 ITD, 10 μM): -15%

Reference: PMC9150124, “Design of a Potent, Selective, and Brain-Penetrant Inhibitor of Wnt-Deactivating Enzyme Notum by Optimization of a Crystallographic Fragment Hit” (Journal of Medicinal Chemistry, 2022)
